Experiment [1] addresses T1, C1b domain of human PKD1 (PKCμ) (Homo sapiens, UniProt Q15139).
T1 construct: Genes encoding C1b domains of human PKCα, δ, ε, θ, and PKD1 (PKCμ) were synthesized; made in house; host or cells: E. coli BL21(DE3)
T1 sequence (Q15139 270-320 limits assumed): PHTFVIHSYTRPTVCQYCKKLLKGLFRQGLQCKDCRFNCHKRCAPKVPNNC
The experiment is described as follows: biochemical. Type of experiment: binding. The gist of the method:
(§1)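 First, the E. coli-produced human GST-C1b protein was mixed with compound and 3H-PDBu and shaken 10 min at 37° C. Next, the plate sat on ice 20 min before filtration and scintillation counting of bound tracer. Finally, IC50 fits were transformed into Ki values.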

A further experiment deals with T2, C1b domain of human PKCα (Homo sapiens, UniProt P17252).
T2 construct: Genes encoding C1b domains of human PKCα, δ, ε, θ, and PKD1 (PKCμ) were synthesized; made in house; host or cells: E. coli BL21(DE3)
The experiment can be described thus: biochemical. It counts as binding. The settings on record: Ki PKCα, 3H-PDBu competition. The gist of the method: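 Competitive binding against 3H-PDBu tracer used recombinant GST-C1b fusion protein expressed in E. coli. Incubation ran 10 min at 37°C with shaking, then 20 min on ice, followed by filtration and scintillation counting of trapped 3H-PDBu. Affinity was derived using each protein preparation's experimentally determined Kd for 3H-PDBu.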

Experiment [2] deals with A549 non-small cell lung cancer cell line. The experiment is described as follows: Proliferation of A549 (CellTiter Glo). It counts as cell-based. Conditions: Homo sapiens, A549, 96 h, read-out: IC50 μM (A549 Cell Line). The gist of the method: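 A549 cells (K-Ras mutant) seeded 1,000/well, 24 h at 37° C, then treated with 3-fold serial dilutions (final DMSO ≤0.25%) for 96 h. Viability by CellTiter Glo luminescence; % inhibition vs DMSO-only Max, curve-fit to give IC50, relative IC50 and % top inhibition.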
On the technique in general: ATP-based viability assays read luminescence as a measure of living cells.

The subject of experiment [3] is phosphorylation of PKCμ, PKCδ and Erk1/2 in A549 lung cancer cells. It counts as cell-based. The settings on record: 30 minutes, Western blot. The procedure:
Cells were then treated with different drugs at indicated concentrations for 30 minutes. […] Imagequant LAS4000 (GE) was used to scan membranes if secondary antibodies anti-mouse IgG HRP conjugate or anti-rabbit IgG HRP conjugate (dilutions from 1:2000-1:10000) were used. For ProteinSimple Wes system, manufacture's procedure was followed (ProteinSimple 12-230 kDa Wes Separation Module) for sample preparation, loading, running, and data analysis.
Phosphorylation of these sites has been linked to acute activation or catalytic activity of the PKC isoforms and Erk1/2. High level of phosphorylation indicates strong activation.
(Immunoblotting shows a protein as a band on a membrane.)

In the next experiment the target is T3, C1b domain of human PKCδ (Homo sapiens, UniProt Q05655).
T3 construct: Genes encoding C1b domains of human PKCα, δ, ε, θ, and PKD1 (PKCμ) were synthesized; made in house; host or cells: E. coli BL21(DE3)
T3 sequence (Q05655 230-280 limits assumed): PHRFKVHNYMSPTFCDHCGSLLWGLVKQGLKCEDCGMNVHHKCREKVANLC
The experiment is described as follows: Competitive 3H-PDBu binding to C1b domain of PKCδ. Conditions: Ki PKCδ, 3H-PDBu competition. Put shortly: as §1

Like-named read-outs stand apart in the source and are kept apart here.

For the compound `CC1=C[C@H]2[C@@]3(O)[C@H](C)C[C@]4(OC(=O)[C@H](N)CC5CCCCC5)[C@H]([C@@H]3C=C(CO)C[C@]2(O)C1=O)C4(C)C` [Compound K101-C1337], the Ki was 5 to 10 nM in experiment [1], 1000 to 2000 nM on C1b domain of human PKCα and 1 to 30 nM at C1b domain of human PKCδ. Further, the IC50 in experiment [2] was in the range of 0.2 to 0.6 µM. Further, in experiment [3] (concentration not given, compared with enantiomer K101-C1327), the “phosphorylation of PKC (PKD/PKCμ), PKCδ and Erk1/2” value is listed as “induced much lower levels of phosphorylation”.
Take `CC1=C[C@H]2[C@@]3(O)[C@H](C)C[C@]4(OC(=O)CCc5ccccn5)[C@H]([C@@H]3C=C(CO)C[C@]2(O)C1=O)C4(C)C` [Compound K101-C1316]: the inhibition constant (Ki) fell in the range of 30 to 60 nM in experiment [1], 6000 to 8000 nM at C1b domain of human PKCα and 100 to 200 nM on C1b domain of human PKCδ. The IC50 in experiment [2] lay within 0.6 to 1 µM. Moreover, the “phosphorylation of PKC (PKD/PKCμ), PKCδ and Erk1/2” value in experiment [3] (3 μM) is “induced phosphorylation”.
The like results for `CC1=C[C@H]2[C@@]3(O)[C@H](C)C[C@]4(OC(=O)CCc5ccncc5)[C@H]([C@@H]3C=C(CO)C[C@]2(O)C1=O)C4(C)C` [Compound K101-C1315] were, in that order, 30 to 60 nM, greater than 8000 nM, 100 to 200 nM, 1 to 2 µM and “induced phosphorylation”.
The like results for `CC1=C[C@H]2[C@@]3(O)[C@H](C)C[C@]4(OC(=O)[C@H](N)Cc5ccccc5)[C@H]([C@@H]3C=C(CO)C[C@]2(O)C1=O)C4(C)C` [Compound K101-C1336] were, in that order, 30 to 60 nM, 2000 to 4000 nM, 100 to 200 nM, 1 to 2 µM and “induced phosphorylation”.

Usually Ki stands for the dissociation constant of the complex between target and ligand, obtained from inhibition or displacement. One may read the IC50 as the concentration that inhibits the measured activity by half.

The values are drawn from patent publication US20220411362A1, “DITERPENOID COMPOUNDS THAT ACT ON PROTEIN KINASE C (PKC)” (K-Gen, Inc., priority 2019, published 2022).
